Laboratory results as given in US20260007758A1, “SO[…]-2 RECEPTOR (SST2R) NON-PEPTIDE DRUG CONJUGATES AND USES THEREOF” (Crinetics Pharmaceuticals, Inc., priority 2024, published 2026).
*1 amine or outer side, *2 acyl side, *3 side chain or, on linkers, in order; H or OH if unused. Where a SMILES comes first, the peptide text is derived from it. [ ]: non-standard residue; d: D form. The star is where a group is joined. X3 = Cc1cc(F)cc(-c2cnc(NCCNC(=O)CCOCCOCCOCCOCCC(=O)*)c(-c3nc4ccc(Cl)cc4[nH]3)c2N2CCC(N)CC2)c1; Dolaproine = CO[C@@H]([C@@H]1CCCN1)[C@@H](C)C(=O)O; Dil = CC[C@H](C)[C@H](NC)[C@@H](CC(=O)O)OC; PABC = O=C(OCc1ccc(N[*:1])cc1)[*:2]; X2 = C[C@@H](N*)[C@@H](O)c1ccccc1; Cit = NC(=O)NCCC[C@H](N)C(=O)O; NMeV = CN[C@H](C(=O)O)C(C)C; PEG1 = NCCOCCC(=O)O

Experiments:
Assay type in all cases: cell-based
[1] = target: T1, human somatostatin receptor subtype 2 (Homo sapiens, UniProt P30874); assay: Functional assay for SSTR2 agonists (HTRF cAMP); conditions: CHO-K1 cells stably expressing human SST2; NKH477-stimulated cAMP; 20 min at 37 C; read-out: hSST2 cAMP Avg EC50
T1 construct: expressed in transfected cells
T1 sequence (P30874 whole entry): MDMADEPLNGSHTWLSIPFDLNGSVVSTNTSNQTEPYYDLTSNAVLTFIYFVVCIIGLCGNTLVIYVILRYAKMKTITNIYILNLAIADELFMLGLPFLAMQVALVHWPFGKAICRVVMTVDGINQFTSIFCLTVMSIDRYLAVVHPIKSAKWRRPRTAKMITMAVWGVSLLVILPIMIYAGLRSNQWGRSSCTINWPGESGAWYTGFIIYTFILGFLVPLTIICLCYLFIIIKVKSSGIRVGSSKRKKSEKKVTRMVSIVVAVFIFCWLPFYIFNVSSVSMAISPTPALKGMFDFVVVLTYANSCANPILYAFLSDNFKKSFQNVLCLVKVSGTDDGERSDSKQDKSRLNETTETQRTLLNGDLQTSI
Outline: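 CHO-K1 cells stably expressing human SSTR2 treated with compound (typically 0-10,000 nM final) for 20 min at 37 °C. Lysate cAMP measured by HTRF (665/620 nm ratio), converted via standard curve; EC50 from cAMP vs concentration.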

SST2 = target: T2, SST2 (Homo sapiens, UniProt P30874); assay: PathHunter CHO-K1 SST2 Internalization Assay; conditions: PathHunter CHO-K1 SST2 cells; 90 min at 37 C; luminescence; read-out: Internalization EC50
T2 construct: host or cells: PathHunter CHO-K1 SST2 cells
T2 sequence (P30874 whole entry): as above
Outline: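 CHO-K1 cells expressing human SST2, 2500 cells/well, grown 48 h, then exposed 90 min at 37 C to 11-point 1:3 NDC dilutions (final top 10 uM). Beta-Glo luminescence after 60 min at room temperature; four-parameter IC50, duplicate mean, background-corrected.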

[2] = system: NCI-H524 human small cell lung cancer cells; assay: H524 assay: inhibition of cell proliferation (CellTiter Glo); conditions: 2 h treatment, washout, additional 70 h incubation
Outline: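 NCI-H524 cells were exposed for 2 h to NDC in an 11-point two-fold series starting at 1 uM. The drug was then washed out and cells grew a further 70 h. CellTiter Glo luminescence gave % inhibition versus untreated control, and IC50 came from a four-parameter nonlinear regression.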

SMILES | EC50 [1] | EC50 (SST2) | EC50 [2]
CC[C@H](C)[C@@H]([C@@H](CC(=O)N1CCC[C@H]1[C@H](OC)[C@@H](C)C(=O)N[C@H](C)[C@@H](O)c1ccccc1)OC)N(C)C(=O)[C@@H](NC(=O)[C@H](C(C)C)N(C)C(=O)OCc1ccc(NC(=O)[C@H](CCCNC(N)=O)NC(=O)[C@@H](NC(=O)c2cc(NCCOCCOCCOCCOCCC(=O)NCCNc3ncc(-c4cc(C)cc(F)c4)c(N4CCC(N)CC4)c3-c3nc4ccc(Cl)cc4[nH]3)cc(C(=O)NCC(=O)O)c2)C(C)C)cc1)C(C)C [Compound 144] | 0.25 nM | 21 nM | 81 nM
CC[C@H](C)[C@@H]([C@@H](CC(=O)N1CCC[C@H]1[C@H](OC)[C@@H](C)C(=O)N[C@H](C)[C@@H](O)c1ccccc1)OC)N(C)C(=O)[C@@H](NC(=O)[C@H](C(C)C)N(C)C(=O)OCc1ccc(NC(=O)[C@H](CCCNC(N)=O)NC(=O)[C@@H](NC(=O)c2cc(NC(=O)CCOCCC(=O)N(C)CC(=O)NCCNc3ncc(-c4cc(C)cc(F)c4)c(N4CCC(N)CC4)c3-c3nc4ccc(Cl)cc4[nH]3)cc(C(=O)NC[C@@H](O)C(=O)O)c2)C(C)C)cc1)C(C)C [Compound 244] | 0.26 nM | 4 nM | 55 nM
CC[C@H](C)[C@@H]([C@@H](CC(=O)N1CCC[C@H]1[C@H](OC)[C@@H](C)C(=O)N[C@H](C)[C@@H](O)c1ccccc1)OC)N(C)C(=O)[C@@H](NC(=O)[C@H](C(C)C)N(C)C(=O)OCc1ccc(NC(=O)[C@H](CCCNC(N)=O)NC(=O)[C@@H](NC(=O)CCOCCC(=O)NCCNc2ncc(-c3cc(C)cc(F)c3)c(N3CCC(N)CC3)c2-c2nc3ccc(Cl)cc3[nH]2)C(C)C)cc1C(=O)N[C@@H](CCCCNC(=O)CCCCc1ccc(I)cc1)C(=O)O)C(C)C [Compound 246] | 0.1 nM | 1.5 nM | 74 nM
CC[C@H](C)[C@@H]([C@@H](CC(=O)N1CCC[C@H]1[C@H](OC)[C@@H](C)C(=O)N[C@H](C)[C@@H](O)c1ccccc1)OC)N(C)C(=O)[C@@H](NC(=O)[C@H](C(C)C)N(C)C(=O)OCc1ccc(NC(=O)[C@H](CCCNC(N)=O)NC(=O)[C@@H](NC(=O)CCOCCC(=O)NCCNc2ncc(-c3cc(C)cc(F)c3)c(N3CCC(N)CC3)c2-c2nc3ccc(Cl)cc3[nH]2)C(C)C)c(OCCO)c1)C(C)C [Compound 12] | 0.24 nM | 6.9 nM | 3.9 nM
CC[C@H](C)[C@@H]([C@@H](CC(=O)N1CCC[C@H]1[C@H](OC)[C@@H](C)C(=O)N[C@H](C)[C@@H](O)c1ccccc1)OC)N(C)C(=O)[C@@H](NC(=O)[C@H](C(C)C)N(C)C(=O)OCc1ccc(NC(=O)[C@H](C)NC(=O)[C@@H](NC(=O)CCOCCC(=O)N(C)CC(=O)NCCNc2ncc(-c3cc(C)cc(F)c3)c(N3CCC(N)CC3)c2-c2nc3ccc(Cl)cc3[nH]2)C(C)C)c(O[C@@H]2O[C@H](C(=O)NCCS(=O)(=O)O)[C@@H](O)[C@H](O)[C@H]2O)c1)C(C)C [Compound 51] | 0.092 nM | 4.4 nM | 28 nM
CC[C@H](C)[C@@H]([C@@H](CC(=O)N1CCC[C@H]1[C@H](OC)[C@@H](C)C(=O)N[C@H](C)[C@@H](O)c1ccccc1)OC)N(C)C(=O)[C@@H](NC(=O)[C@H](C(C)C)N(C)C(=O)OCc1ccc(NC(=O)[C@H](C)NC(=O)[C@@H](NC(=O)CCOCCn2cc(CCC(=O)NCCNc3ncc(-c4cc(C)cc(F)c4)c(N4CCC(N)CC4)c3-c3nc4ccc(Cl)cc4[nH]3)nn2)C(C)C)c(O[C@@H]2O[C@H](C(=O)O)[C@@H](O)[C@H](O)[C@H]2O)c1)C(C)C [Compound 141] | 0.1 nM | 8.8 nM | 20 nM
CC[C@H](C)[C@@H]([C@@H](CC(=O)N1CCC[C@H]1[C@H](OC)[C@@H](C)C(=O)N[C@H](C)[C@@H](O)c1ccccc1)OC)N(C)C(=O)[C@@H](NC(=O)[C@H](C(C)C)N(C)C(=O)OCc1ccc(NC(=O)[C@H](CCCNC(N)=O)NC(=O)[C@@H](NC(=O)[C@H](CCC(N)=O)NC(=O)CCOCCOCCOCCOCCC(=O)NCCNc2ncc(-c3cc(C)cc(F)c3)c(N3CCC(N)CC3)c2-c2nc3ccc(Cl)cc3[nH]2)C(C)C)c(OCCN)c1)C(C)C [Compound 26] | 0.3 nM | 12 nM | 17 nM
CC[C@H](C)[C@@H]([C@@H](CC(=O)N1CCC[C@H]1[C@H](OC)[C@@H](C)C(=O)N[C@H](C)[C@@H](O)c1ccccc1)OC)N(C)C(=O)[C@@H](NC(=O)[C@H](C(C)C)N(C)C(=O)OCc1ccc(NC(=O)[C@H](CCCNC(N)=O)NC(=O)[C@@H](NC(=O)CCOCCNC(=O)[C@H](CCC(=O)O)NC(=O)[C@H](CCC(=O)O)NC(=O)CCOCCOCCOCCOCCC(=O)NCCNc2ncc(-c3cc(C)cc(F)c3)c(N3CCC(N)CC3)c2-c2nc3ccc(Cl)cc3[nH]2)C(C)C)cc1)C(C)C [Compound 190] (X3-EE[PEG1]V[Cit][PABC][NMeV]V[Dil][Dolaproine]-X2) | 0.33 nM | 14 nM | 3200 nM
CC[C@H](C)[C@@H]([C@@H](CC(=O)N1CCC[C@H]1[C@H](OC)[C@@H](C)C(=O)N[C@H](C)[C@@H](O)c1ccccc1)OC)N(C)C(=O)[C@@H](NC(=O)[C@H](C(C)C)N(C)C(=O)OCc1ccc(NC(=O)[C@H](CCCNC(N)=O)NC(=O)[C@@H](NC(=O)c2cc(NCCOCCC(=O)NCCNc3ncc(-c4cc(C)cc(F)c4)c(N4CCC(N)CC4)c3-c3nc4ccc(Cl)cc4[nH]3)cc(C(=O)NC[C@@H](N)C(=O)O)c2)C(C)C)cc1)C(C)C [Compound 147] | 0.56 nM | 23 nM | 35 nM
CC[C@H](C)[C@@H]([C@@H](CC(=O)N1CCC[C@H]1[C@H](OC)[C@@H](C)C(=O)N[C@H](C)[C@@H](O)c1ccccc1)OC)N(C)C(=O)[C@@H](NC(=O)[C@H](C(C)C)N(C)C(=O)OCc1ccc(NC(=O)[C@H](C)NC(=O)[C@@H](NC(=O)CCOCCC(=O)NCCNc2ncc(-c3cc(C)cc(F)c3)c(N3CCC(N)CC3)c2-c2cc3ccc(F)cc3[nH]2)C(C)C)c(O[C@@H]2O[C@H](C(=O)O)[C@@H](O)[C@H](O)[C@H]2O)c1)C(C)C [Compound 116] | 0.19 nM | 14 nM | 21 nM
CC[C@H](C)[C@@H]([C@@H](CC(=O)N1CCC[C@H]1[C@H](OC)[C@@H](C)C(=O)N[C@H](C)[C@@H](O)c1ccccc1)OC)N(C)C(=O)[C@@H](NC(=O)[C@H](C(C)C)N(C)C(=O)OCc1ccc(NC(=O)[C@@H](CCCNC(N)=O)NC(=O)[C@@H](NC(=O)CCOCCC(=O)NCCNc2ncc(-c3cc(C)cc(F)c3)c(N3CCC(N)CC3)c2-c2nc3ccc(Cl)cc3[nH]2)C(C)C)c(O[C@H]2[C@H](O)[C@@H](O)[C@H](O)[C@@H](C(=O)O)[C@H]2O)c1)C(C)C [Compound 241] | 0.19 nM | 4.6 nM | 2900 nM
CC[C@H](C)[C@@H]([C@@H](CC(=O)N1CCC[C@H]1[C@H](OC)[C@@H](C)C(=O)N[C@H](C)[C@@H](O)c1ccccc1)OC)N(C)C(=O)[C@@H](NC(=O)[C@H](C(C)C)N(C)C(=O)OCc1ccc(NC(=O)[C@H](CCCNC(N)=O)NC(=O)[C@@H](NC(=O)[C@H](CCCO)NC(=O)CCOCCC(=O)NCCNc2ncc(-c3cc(C)cc(F)c3)c(N3CCC(N)CC3)c2-c2nc3cc(Cl)ccc3[nH]2)C(C)C)c(O[C@@H]2O[C@H](C(=O)NCC(=O)O)[C@@H](O)[C@H](O)[C@H]2O)c1)C(C)C [Compound 213] | 0.089 nM | 3.4 nM | 9.2 nM
CC[C@H](C)[C@@H]([C@@H](CC(=O)N1CCC[C@H]1[C@H](OC)[C@@H](C)C(=O)N[C@H](C)[C@@H](O)c1ccccc1)OC)N(C)C(=O)[C@@H](NC(=O)[C@H](C(C)C)N(C)C(=O)OCc1ccc(NC(=O)[C@H](CCCNC(N)=O)NC(=O)[C@@H](NC(=O)CCOCCC(=O)NCCNc2ncc(-c3cc(C)cc(F)c3)c(N3CCC(N)CC3)c2-c2nc3ccc(Cl)cc3[nH]2)C(C)C)c(O[C@@H]2O[C@H](C(=O)N(C)CCS(=O)(=O)O)[C@@H](O)[C@H](O)[C@H]2O)c1)C(C)C [Compound 218] | 0.07 nM | 2.8 nM | 7 nM
CC[C@H](C)[C@@H]([C@@H](CC(=O)N1CCC[C@H]1[C@H](OC)[C@@H](C)C(=O)N[C@H](C)[C@@H](O)c1ccccc1)OC)N(C)C(=O)[C@@H](NC(=O)[C@H](C(C)C)N(C)C(=O)OCc1ccc(NC(=O)[C@H](CCCNC(N)=O)NC(=O)[C@@H](NC(=O)CCOCCC(=O)NCCNc2ncc(-c3cc(C)cc(F)c3)c(N3CCC(N)CC3)c2-c2nc3ccc(Cl)cc3[nH]2)C(C)C)c(O[C@H]2[C@H](O)[C@@H](O)[C@H](O)[C@@H](C(=O)N(C)CC(=O)N(C)CC(=O)N(C)CC(=O)O)[C@H]2O)c1)C(C)C [Compound 236] | 0.14 nM | 5.1 nM | 9.9 nM
CC[C@H](C)[C@@H]([C@@H](CC(=O)N1CCC[C@H]1[C@H](OC)[C@@H](C)C(=O)N[C@H](C)[C@@H](O)c1ccccc1)OC)N(C)C(=O)[C@@H](NC(=O)[C@H](C(C)C)N(C)C(=O)OCc1ccc(NC(=O)[C@H](CCCNC(N)=O)NC(=O)[C@@H](NC(=O)[C@@H](CCC(=O)O)NC(=O)CCOCCC(=O)NCCNc2ncc(-c3cc(C)cc(F)c3)c(N3CCC(N)CC3)c2-c2nc3ccc(Cl)cc3[nH]2)C(C)C)cc1C(=O)NCCN)C(C)C [Compound 25] | 0.29 nM | 6.5 nM | 41 nM
